In patent publication US20040162274A1, “Inhibition of steroid synthesis by use of progesterone or a progesterone receptor agonist” (priority 2002, published 2004):

Assays:
Format in all cases: cell-based, rat
[1] = tested on: isolated Leydig cells of rats; test: hCG-induced cAMP production in isolated Leydig cells of rats (ELISA); details: for amount of cAMP formed in the cells in response to gonadotropic stimulation: FIGS. 2 and 3
Description: (§1) The testicles of young (three months old) and old (23-24 months old) Wistar rats (Charles River, Sulzfeld, Germany) were removed immediately after killing the rats by means of carbon dioxide anaesthesia and cervical dislocation.
(§2) In order to isolate and to purify the Leydig cells from the testicles of young and old rats, the decapsulated testicular mass of healthy Wistar rats was treated with collagenase (0.25 mg/ml) for 30 minutes at room temperature as described by Mukhopadhyay et al., Biochem. J., 239:463-467 (1986a), Mukhopadhyay et al., FEBS Lett., 202:111-116 (1986b)). The homogenous cell suspension so obtained was filtered through a nylon filter to obtain an impure Leydig cell preparation. After further purification by means of a Percoll gradient, the final number of high-grade purified Leydig cells was determined using a Neubauer chamber.
Aliquots of 100,000 cells per incubation tube were used for the experiments in which cAMP was measured. The cells were pre-incubated for 3 hours and subsequently incubated for 30 minutes with or without the addition of different concentrations of hCG as a surrogate for LH. In order to investigate the effect of the different steroids, Leydig cells were subjected to steroids for 3 hours as described. The cells were then stimulated with hCG (3 ng/ml) for 30 minutes. Incubation was stopped by the addition of absolute ethanol (final alcohol concentration ca. 80%) and subsequent mixing by means of vortices. The ethanol extract was evaporated until dry, and the residue dissolved in 1 ml of MEM, which contained 0.1% sodium azide. The amount of cAMP formed was determined by means of a specific ELISA, which was carried out as described in Budnik and Mukhopadhyay, FEBS Letters, 419:4-8 (1997). However, commercially available ELISAs, such as, for example, CM 59221 (IBL, Hamburg, Germany) or DE 0355 or DE 0450 (R&D Systems GmbH, Wiesbaden, Germany) can also be used.
Leydig cells were subjected to 3 different steroids for 3 hours (see FIG. 1). Subsequently, the cells were stimulated over 30 minutes with hCG (human chorion gonadotropin; 3 ng/ml) as a surrogate for LH.
The amount of cAMP formed was determined using a specific ELISA.

[2] = tested on: isolated Leydig cells of rats; test: hCG-induced testosterone production in isolated Leydig cells of rats; details: different concentrations for 3 hours, then hCG 5 ng/ml for 3 hours; testosterone in medium; FIG. 3
Description: as §1, §2
Similar culture conditions as described above were used for experiments, in which testosterone was measured. However, aliquots of 50,000 cells per incubation tube were used. […] The content of testosterone was determined by means of specific, commercially available kits (IBL, Hamburg). The amount of testosterone for 100,000 cells was calculated on the basis of the measured values.
Both R5020 and drospirenone are clearly, structurally different from testosterone. […] Then, the quantity of testosterone that accumulated in the medium was measured.

StAR protein = test: StAR expression in Leydig cells in vitro (northern blot)
Source text: RNA was isolated from 1.5×10^6 high-quality cleaned Leydig cells, which were cultivated in 12-well plates (750,000 cells/well). The RNA was extracted in accordance with a modified single-step method of Chomczynski and Sacchi, Anal. Biochem., 162:156-159 (1987), using the small-scale phenol-free RNA isolation kit (Ambion Inc., Austin, Tex.). According to the size, the isolated RNA was separated by gel electrophoresis in a 1.2% agarose gel using the formaldhyde/morpholino-propane sulphonic acid method (Sambrook et al., Vol.1, 7.37, 7.39-7.52, Nolan, C. (Ed), Cold Spring Harbor Laboratory Press, Cold Spring Harbor, N.Y.). The transfer (blotting) of the RNA from the gel onto a nylon membrane (nytran, Schleicher and Schüll, Dassel, Germany) was carried out by capillary transfer using a downwards-directed transfer for 4 hours in accordance with the manufacturer's instructions (Ambion Inc., Austin, Tex.; AMS Biotechnology, Wiesbaden, Germany) with modifications by Chomczynski, P., Anal. Biochem., 201:134-139 (1992). […]
As the gestagens mentioned above apparently both have inhibitory effects on cAMP and on the production of steroids in gonadotropin-stimulated Leydig cells, the inhibitory effects of progesterone on the quantity of StAR protein expressed were analysed. […] At the end of the incubation, total RNA was extracted and StAR protein expression was analysed using northern blots. […]

SMILES | amount of cAMP formed in the cells in response to gonadotropic stimulation [1] | effect on hCG-induced production of testosterone [2] | effect on cAMP reaction to gonadotropin stimulation ([1]; Leydig cells subjected to steroid 3 hours, then hCG 3 ng/ml 30 minutes, FIG. 1) | effect on hCG-induced cAMP formation at 0.1 μmol/l ([1]; concentration 0.1 μmol/l (10^−7 mol/l)) | effect on hCG-induced cAMP formation, dose-response curve ([1]; dose-response curve, FIG. 2) | effect on hCG-induced cAMP formation at higher concentrations ([1]; higher concentrations, up to 2.5 μmol/l) | hCG-stimulated amounts of StAR protein (StAR protein; pre-incubation 3 hours, then hCG 5 ng/ml 3 hours, Lane 4 vs Lane 2, FIG. 4) | expression of StAR protein in cells not treated with a gonadotropin (StAR protein; pre-treatment 3 hours, no hCG, Lane 3, FIG. 4)
CCC(=O)[C@@]1(C)CC[C@H]2[C@@H]3CCC4=CC(=O)CCC4=C3CC[C@@]21C [R5020] | drastically reduced | able to inhibit the production of testosterone | – | – | – | – | – | –
CC(=O)[C@H]1CC[C@H]2[C@@H]3CCC4=CC(=O)CC[C@]4(C)[C@H]3CC[C@]12C [progesterone, 4-pregnene-3,20-dione] | – | – | significantly inhibit | almost no effects | dose-dependent inhibitory effect | clearly inhibitory effects | significant reduction | did not significantly affect
C[C@]12CCC(=O)C=C1[C@@H]1C[C@@H]1[C@H]1[C@@H]3[C@@H]4C[C@@H]4[C@@]4(CCC(=O)O4)[C@@]3(C)CC[C@@H]12 [drospirenone] | drastically reduced | able to inhibit the production of testosterone | – | – | – | – | – | –
